According to patent US12084472B2 (Ardelyx, Inc., priority 2015, dated 2024):

The compounds below were run against T1, human TGR5 (Homo sapiens, UniProt Q8TDU6) (assay: Cell-based TGR5 assay (cAMP generation, HTRF)). Details: HEK293 cells stably transfected with human TGR5; cAMP by HTRF; 30 minutes at 37° C.; read-out: pEC50 Human TGR5 (converted).
T1 construct: expressed in transfected cells; host or cells: HEK293
T1 sequence (Q8TDU6 1-330): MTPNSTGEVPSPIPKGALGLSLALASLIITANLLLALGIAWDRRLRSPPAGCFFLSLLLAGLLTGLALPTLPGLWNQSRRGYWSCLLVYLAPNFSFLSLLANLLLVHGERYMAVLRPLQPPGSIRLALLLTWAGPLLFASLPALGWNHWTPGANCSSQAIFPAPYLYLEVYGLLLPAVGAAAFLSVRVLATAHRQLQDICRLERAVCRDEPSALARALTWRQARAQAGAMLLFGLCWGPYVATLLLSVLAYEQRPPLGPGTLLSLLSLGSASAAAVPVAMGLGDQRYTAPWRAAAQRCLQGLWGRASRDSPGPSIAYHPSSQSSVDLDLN
Method in brief: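 First, compounds in 3-fold serial dilution were placed in HBSS with 10 mM HEPES pH 7.4 and 0.5 mM IBMX. Next, human TGR5-expressing HEK293 cells were added and incubated 30 min at 37° C. Finally, cAMP was detected by HTRF and pEC50 derived by logistic fitting.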

Row | EC50 [nM] | Compound
1 | 126 to 1000 | O=C(CCCSc1ccc(Cl)c(COC2(c3cnccc3-c3ccccc3OC3CC3)CC2)c1)N(CCS(=O)(=O)N1CCOCC1)C[C@H](O)[C@@H](O)[C@H](O)[C@H](O)CO [Compound I-686, 4-{[4-chloro-3-({1-[4-(2-cyclopropoxyphenyl)pyridin-3-yl]cyclopropoxy}methyl)phenyl]sulfanyl}-N-[2-(morpholine-4-sulfonyl)ethyl]-N-[(2S,3R,4R,5R)-2,3,4,5,6-pentahydroxyhexyl]butanamide]
2 | 126 to 1000 | CC(C)(CO)CN(C[C@@H](O)[C@H](O)[C@@H](O)[C@@H](O)CO)C(=O)CCCSc1ccc(Cl)c(COC2(c3cnccc3-c3ccccc3OC3CC3)CC2)c1 [Compound I-687, 4-{[4-chloro-3-({1-[4-(2-cyclopropoxyphenyl)pyridin-3-yl]cyclopropoxy}methyl)phenyl]sulfanyl}-N-(3-hydroxy-2,2-dimethylpropyl)-N-[(2R,3S,4S,5S)-2,3,4,5,6-pentahydroxyhexyl]butanamide]
3 | 126 to 1000 | O=C(CCCSc1ccc(Cl)c(COC2(c3cnccc3-c3ccccc3OC3CC3)CC2)c1)N(C[C@@H](O)[C@H](O)[C@@H](O)[C@@H](O)CO)[C@H]1CC[C@@H](O)CC1 [Compound I-688, 4-{[4-chloro-3-({1-[4-(2-cyclopropoxyphenyl)pyridin-3-yl]cyclopropoxy}methyl)phenyl]sulfanyl}-N-[(2R,3S,4S,5S)-2,3,4,5,6-pentahydroxyhexyl]-N-[(1s,4s)-4-hydroxycyclohexyl]butanamide]
4 | < 100 | CC(CCSc1ccc(Cl)c(COC2(c3cnccc3-c3ccccc3OC3CC3)CC2)c1)C(=O)N(C)C[C@H](O)[C@@H](O)[C@H](O)[C@H](O)CO (stereo partly drawn) [Compound I-689, 4-{[4-chloro-3-({1-[4-(2-cyclopropoxyphenyl)pyridin-3-yl]cyclopropoxy}methyl)phenyl]sulfanyl}-N,2-dimethyl-N-[(2S,3R,4R,5R)-2,3,4,5,6-pentahydroxyhexyl]butanamide]
5 | < 100 | CC(CCSc1ccc(Cl)c(COC2(c3cnccc3-c3ccccc3OC3CC3)CC2)c1)C(=O)NC[C@H](O)[C@@H](O)[C@H](O)[C@H](O)CO (stereo partly drawn) [Compound I-690, 4-{[4-chloro-3-({1-[4-(2-cyclopropoxyphenyl)pyridin-3-yl]cyclopropoxy}methyl)phenyl]sulfanyl}-2-methyl-N-[(2S,3R,4R,5R)-2,3,4,5,6-pentahydroxyhexyl]butanamide]
6 | 126 to 1000 | CCc1ccc(SCCCC(=O)N(C)C[C@H](O)[C@@H](O)[C@H](O)[C@H](O)CO)cc1COC1(c2cnccc2-c2ccccc2OC2CC2)CC1 [Compound I-691, 4-{[3-({1-[4-(2-cyclopropoxyphenyl)pyridin-3-yl]cyclopropoxy}methyl)-4-ethylphenyl]sulfanyl}-N-methyl-N-[(2S,3R,4R,5R)-2,3,4,5,6-pentahydroxyhexyl]butanamide]
7 | 126 to 1000 | O=C(CCCSc1ccc(Cl)c(COC2(c3cnccc3-c3ccccc3OC3CC3)CC2)c1)N(CCCCO)C[C@H](O)[C@@H](O)[C@H](O)[C@H](O)CO [Compound I-692, 4-{[4-chloro-3-({1-[4-(2-cyclopropoxyphenyl)pyridin-3-yl]cyclopropoxy}methyl)phenyl]sulfanyl}-N-(4-hydroxybutyl)-N-[(2S,3R,4R,5R)-2,3,4,5,6-pentahydroxyhexyl]butanamide]
8 | 126 to 1000 | CN(C)S(=O)(=O)CCN(C[C@H](O)[C@@H](O)[C@H](O)[C@H](O)CO)C(=O)CCCSc1ccc(Cl)c(COC2(c3cnccc3-c3ccccc3OC3CC3)CC2)c1 [Compound I-693, 4-{[4-chloro-3-({1-[4-(2-cyclopropoxyphenyl)pyridin-3-yl]cyclopropoxy}methyl)phenyl]sulfanyl}-N-[2-(dimethylsulfamoyl)ethyl]-N-[(2S,3R,4R,5R)-2,3,4,5,6-pentahydroxyhexyl]butanamide]
9 | 126 to 1000 | CNS(=O)(=O)CCN(C[C@H](O)[C@@H](O)[C@H](O)[C@H](O)CO)C(=O)CCCSc1ccc(Cl)c(COC2(c3cnccc3-c3ccccc3OC3CC3)CC2)c1 [Compound I-694, 4-{[4-chloro-3-({1-[4-(2-cyclopropoxyphenyl)pyridin-3-yl]cyclopropoxy}methyl)phenyl]sulfanyl}-N-[2-(methylsulfamoyl)ethyl]-N-[(2S,3R,4R,5R)-2,3,4,5,6-pentahydroxyhexyl]butanamide]
10 | < 100 | CC(=O)N(CCCCCSc1ccc(Cl)c(COC2(c3cnccc3-c3ccccc3OC3CC3)CC2)c1)C[C@H](O)[C@@H](O)[C@H](O)[C@H](O)CO [Compound I-695, N-(5-{[4-chloro-3-({1-[4-(2-cyclopropoxyphenyl)pyridin-3-yl]cyclopropoxy}methyl)phenyl]sulfanyl}pentyl)-N-[(2S,3R,4R,5R)-2,3,4,5,6-pentahydroxyhexyl]acetamide]
11 | < 100 | CCN(CCCCNC(=O)N[C@@H](CO)[C@@H](O)[C@H](O)[C@H](O)CO)S(=O)(=O)c1ccc(Cl)c(CNC2(c3cnccc3-c3ccccc3OC3CC3)CC2)c1 [Compound I-696, 1-[4-(N-ethyl[4-chloro-3-[([1-[4-(2-cyclopropoxyphenyl)pyridin-3-yl]cyclopropyl]amino)methyl]benzene]sulfonamido)butyl]-3-[(2S,3R,4S,5R)-1,3,4,5,6-pentahydroxyhexan-2-yl]urea]
12 | < 100 | Oc1cc(Cl)c(CNC2(c3cnccc3-c3ccccc3OC3CC3)CC2)cc1Cl [Compound I-700, 2,5-dichloro-4-[([1-[4-(2-cyclopropoxyphenyl)pyridin-3-yl]cyclopropyl]amino)methyl]phenol]
13 | 126 to 1000 | Cc1ccc(CCCCNC(=O)NC[C@H](O)[C@@H](O)[C@H](O)[C@H](O)CO)nc1CNC1(c2cnccc2-c2ccccc2OC2CC2)CC1 [Compound I-705]
14 | 1260 to 10000 | Cc1ccc(CCCCNC(=O)N(C)C[C@H](O)[C@@H](O)[C@H](O)[C@H](O)CO)nc1CNC1(c2cnccc2-c2ccccc2OC2CC2)CC1 [Compound I-706]
15 | 1260 to 10000 | Cc1ccc(CCCCCNC(=O)NC[C@H](O)[C@@H](O)[C@H](O)[C@H](O)CO)nc1CNC1(c2cnccc2-c2ccccc2OC2CC2)CC1 [Compound I-707]
16 | 1260 to 10000 | Cc1ccc(CCCCC(=O)N(C)C[C@H](O)[C@@H](O)[C@H](O)[C@H](O)CO)nc1COC1(c2cnccc2-c2ccccc2OC2CC2)CC1 [Compound I-709]
17 | < 100 | CC(C)(NCc1cc(Cl)ccc1Cl)c1cnccc1-c1ccccc1OC1CC1 [Compound I-723, 2-(4-(2-Cyclopropoxyphenyl)pyridin-3-yl)-N-(2,5-dichlorobenzyl)propan-2-amine]
18 | 126 to 1000 | O=C(NC[C@H](O)[C@@H](O)[C@H](O)[C@H](O)CO)c1ccc(CCc2ccc(Cl)c(COC3(c4cnccc4-c4ccccc4OC4CC4)CC3)c2)cc1 [Compound I-724, 4-(4-Chloro-3-((1-(4-(2-cyclopropoxyphenyl)pyridin-3-yl)cyclopropoxy)methyl)phenethyl)-N-((2S,3R,4R,5R)-2,3,4,5,6-pentahydroxyhexyl)benzamide]
19 | 126 to 1000 | CN(C)C(=O)c1ccc(Cl)c(COC2(c3cnccc3-c3ccccc3OC3CC3)CC2)c1 [Compound I-725, 4-Chloro-3-((1-(4-(2-cyclopropoxyphenyl)pyridin-3-yl)cyclopropoxy)methyl)-N,N-dimethylbenzamide]
20 | 126 to 1000 | O=C(NCCCCCOc1ccc(Cl)c(COC2(c3cnccc3-c3ccccc3OC3CC3)CC2)c1)NC[C@H](O)[C@@H](O)[C@H](O)[C@H](O)CO [Compound I-726, 1-(5-(4-chloro-3-((1-(4-(2-cyclopropoxyphenyl)pyridin-3-yl)cyclopropoxy)methyl)phenoxy)pentyl)-3-((2S,3R,4R,5R)-2,3,4,5,6-pentahydroxyhexyl)urea]
21 | 126 to 1000 | O=C(NC[C@H](O)[C@@H](O)[C@H](O)[C@H](O)CO)c1cccc(OCc2ccc(Cl)c(COC3(c4cnccc4-c4ccccc4OC4CC4)CC3)c2)c1 [Compound I-727, 3-((4-chloro-3-((1-(4-(2-cyclopropoxyphenyl)pyridin-3-yl)cyclopropoxy)methyl)benzyl)oxy)-N-((2S,3R,4R,5R)-2,3,4,5,6-pentahydroxyhexyl)benzamide]
22 | < 100 | CC(C)N(CCCCNC(=O)[C@@H](O)[C@@H](O)[C@H](O)[C@@H](O)CO)S(=O)(=O)c1cc(COC2(c3cnccc3-c3ccccc3OC3CC3)CC2)c(Cl)cc1F [Compound I-728, (2S,3S,4R,5S)-2,3,4,5,6-pentahydroxy-N-[4-[N-(propan-2-yl)[4-chloro-5-([1-[4-(2-cyclopropoxyphenyl)pyridin-3-yl]cyclopropoxy]methyl)-2-fluorobenzene]sulfonamido]butyl]hexanamide]
23 | 1260 to 10000 | CC(=O)NS(=O)(=O)c1ccc(Cl)c(COC2(c3cnccc3-c3ccccc3OC3CC3)CC2)c1 [Compound I-729, N-[[4-chloro-3-([1-[4-(2-cyclopropoxyphenyl)pyridin-3-yl]cyclopropoxy]methyl)benzene]sulfonyl]acetamide]
24 | < 100 | COc1cc(Cl)c(COC2(c3cnccc3-c3ccccc3OC3CC3)CC2)cc1S(=O)(=O)N(C)C [Compound I-730, 4-chloro-5-([1-[4-(2-cyclopropoxyphenyl)pyridin-3-yl]cyclopropoxy]methyl)-2-methoxy-N,N-dimethylbenzene-1-sulfonamide]
25 | < 100 | CN(C)S(=O)(=O)c1cc(COC2(c3cnccc3-c3ccccc3OC3CC3)CC2)c(Cl)cc1O [Compound I-731, 4-chloro-5-([1-[4-(2-cyclopropoxyphenyl)pyridin-3-yl]cyclopropoxy]methyl)-2-hydroxy-N,N-dimethylbenzene-1-sulfonamide]
